Experimental data published in patent US20050100510A1, “Methods for using gadolinium as a contrast media” (priority 2003, published 2005).
Entries after “also recorded” stand apart in the source; their conditions may differ. Where two headings read alike, the source gives them in different places.

Assays:
[1] = Second set of test cases: fluoroscopically guided spinal injections with gadolinium; type: in vivo, human
Description: During the second of set of tests, gadolinium was injected into a variety of target portions of the spinal area to create a contrast between the target portion and surrounding tissue. As described below, these contrasts were adequately sensed using fluoroscopy to create visual representations of the contrast between the target portion and the surrounding tissue. The second set of tests utilized a preferred embodiment of the method of using gadolinium as a contrast substance, where a visualization was created to use as a guide for the accurate injection of a diagnostic or therapeutic substance into the target portion of the spinal area. In this respect, visualization of the contrast helps to localize placement of a needle for an injection of a substance avoiding the harm that the injection might cause to surrounding tissue.
The second set of tests comprised chart review, performance of spinal injections with gadolinium under fluoroscopic guidance, and post procedure follow-up by phone at two and twelve weeks to assess any adverse reactions to the gadolinium. […] The tests utilized a contrast substance that was 469.01 mg/ml gadolinium (Magnevist—from Berlex Laboratories, Wayne, N.J.). […]

[2] = Third set of cases: spinal interventional procedures with fluoroscopic guidance, adverse reactions; type: in vivo, human
Description: In a third set of cases, two-hundred-and-thirty patients underwent spinal interventional procedures with fluoroscopic guidance. Two-hundred-and-eleven patients were subsequently evaluated for any adverse reaction in the period immediately after the procedure and up to several weeks after the procedure. Seventy-four of the patients were male and one-hundred-and-thirty-seven were female. The age range of the patient population varied from sixteen years old to eighty-one year old, and the average age of the patient population was 48.7 years old. The only prophylactic medications that were administered before the procedure were antibiotics for patients undergoing discography, patients with significant cardiac disease, or patients with surgical implants. The number and type of procedures along with the number of adverse reactions for each procedure type are summarized in below in Table 1: […]

[3] = intravenous administration; cited from earlier work
[4] = First set of test cases: gadolinium lumbar discography with fluoroscopy and CT; type: in vivo, human; settings: for visibility of contrast on computer axial tomography: approximately one-hundred-and-sixty minutes after injection, case 1-1
Description: A first set of test cases was conducted wherein it was identified that gadolinium would adequately opacify, thereby allowing adequate fluoroscopic imaging for of soft tissue portions of the spinal area and, for example, for lumbar discography procedures. […] During the first set of test cases, a solution of 469.01 mg/ml gadolinium (Magnevist—Berlex Laboratories, Wayne, N.J.) with 25 mg/ml Cefazolin (Apothecon, Princeton, N.J.) for antibacterial prophylaxis was injected into each disc using a standard three milliliter syringe. The following is a brief synopsis of six tests from the first set of tests:
The volume of contrast injected at pain onset, the end point (nucleography), the pain intensity measured with the numerical analog scale, and the concordant and/or discordant pain response were recorded for each spinal disc to be injected with gadolinium. Each spinal disc then was visualized with c-arm fluoroscopy to create a visualization of the nucleogram and provocation of the spinal discs.

[5] = cited from earlier work
[6] = repeated exposure in sensitive individuals

CNC[C@H](O)[C@@H](O)[C@H](O)[C@H](O)CO.CNC[C@H](O)[C@@H](O)[C@H](O)[C@H](O)CO.O=C([O-])CN(CCN(CC(=O)[O-])CC(=O)O)CCN(CC(=O)[O-])CC(=O)O.[Gd+3] [gadolinium, gadopentate dimeglumine]
side effects, complications or adverse reactions ([1]; 469.01 mg/ml gadolinium (Magnevist), follow-up at two and twelve weeks): no side effects or complications; also recorded: None of the individuals in the case series of the present invention had any adverse reactions | visibility under fluoroscopy ([1]; soft tissue of the spinal area): visible under fluoroscopy | Number of Adverse Reactions ([2]; Caudal epidural, 16 procedures): 0 | Number of Adverse Reactions ([2]; Cervical SNRB, 14 procedures): 1 | Number of Adverse Reactions ([2]; Cervical interlaminar, 6 procedures): 1 | Number of Adverse Reactions ([2]; Lumbar SNRB, 55 procedures): 4 | Number of Adverse Reactions ([2]; Lumbar discography, 11 procedures): 0 | Number of Adverse Reactions ([2]; Lumbar epidurolysis, 4 procedures): 0 | Number of Adverse Reactions ([2]; Lumbar interlaminar, 37 procedures): 1 | Number of Adverse Reactions ([2]; Lumbar intraarticular facet, 3 procedures): 0 | Number of Adverse Reactions ([2]; Lumbar sympathetic, 4 procedures): 0 | Number of Adverse Reactions ([2]; Other miscellaneous, 13 procedures): 1 | Number of Adverse Reactions ([2]; Sacroiliac joint, 59 procedures): 2 | quality of visualizations from gadolinium-induced contrasts ([2]; all procedures, fluoroscopic devices): adequate visualizations | serious adverse reactions ([2]; of the five allergic-type reactions, likely due to contributing factors): one | adverse reactions attributable to allergic-type reactions ([2]; out of the ten adverse reactions): five | adverse reaction rate [3]: 0.06% | visibility in disc material on fluoroscopic image ([4]; after injection into spinal discs): fluoroscopically visible; also recorded: clearly visible | visibility of contrast on computer axial tomography ([4]; L3-L4 spinal disc): visible | visibility of contrast on computer axial tomography ([4]; L4-L5 disrupted spinal disc): less intensive, but still visible | complications during or after the procedure ([4]; intradiscal, 469.01 mg/ml gadolinium with 25 mg/ml Cefazolin, single patient cases): No complications | visibility on CT scan ([4]; more than one-hundred-and-twenty minutes after injection, discs with and without annular disruption): still visible | visibility on computer axial tomography ([4]; thirty minutes after completion of the procedure, case 1-2): showed gadolinium in each disc

CC(=O)N(CC(O)CO)c1c(I)c(C(=O)NCC(O)CO)c(I)c(C(=O)NCC(O)CO)c1I (stereo not drawn) [iohexol]
anaphylaxis occurrence ([5]; first dose administrations): one percent and two percent | anaphylaxis occurrence [5, 6]: seventeen percent and thirty-five percent

C[C@H](O)C(=O)Nc1c(I)c(C(=O)NC(CO)CO)c(I)c(C(=O)NC(CO)CO)c1I [iopamidol]
anaphylaxis occurrence ([5]; first dose administrations): one percent and two percent | anaphylaxis occurrence [5, 6]: seventeen percent and thirty-five percent
